The target of experiment [1] is T1, human CYP11B1 (Homo sapiens, UniProt P15538).
T1 construct: expressed in transfected cells
T1 sequence (P15538 25-503): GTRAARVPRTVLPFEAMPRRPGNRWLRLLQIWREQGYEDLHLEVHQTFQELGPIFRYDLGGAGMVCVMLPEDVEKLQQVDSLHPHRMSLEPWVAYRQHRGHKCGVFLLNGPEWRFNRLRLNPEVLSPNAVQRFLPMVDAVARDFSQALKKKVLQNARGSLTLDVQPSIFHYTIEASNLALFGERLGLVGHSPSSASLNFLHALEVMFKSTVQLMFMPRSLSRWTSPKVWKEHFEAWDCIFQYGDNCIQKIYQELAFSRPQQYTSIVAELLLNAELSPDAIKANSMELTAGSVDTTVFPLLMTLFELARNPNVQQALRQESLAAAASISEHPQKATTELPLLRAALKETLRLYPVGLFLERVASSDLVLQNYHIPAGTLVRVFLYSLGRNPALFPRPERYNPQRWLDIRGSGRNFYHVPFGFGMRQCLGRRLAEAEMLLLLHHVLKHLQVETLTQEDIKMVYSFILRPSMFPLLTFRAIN
The experiment is described as follows: G-402 cellular enzyme assay, human CYP11B1 (cortisol release, HTRF). It counts as cell-based. Particulars: G-402 cells expressing human CYP11B1; 1 μM Deoxycortisol. The gist of the method: (§1)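 EC50 comes from least-squares fitting of a 4-parameter MMF curve to steroid product levels, measured by HTRF as aldosterone for CYP11B2 or cortisol for CYP11B1. Stably transfected G-402 host cells were given substrate (1 μM deoxycorticosterone or deoxycortisol, respectively) with inhibitor for 16 h in medium with 2.5% charcoal-treated FCS.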

Experiment [2] has as its target T2, human CYP11B2 (Homo sapiens, UniProt P19099).
T2 construct: expressed in transfected cells
T2 sequence (P19099 25-503): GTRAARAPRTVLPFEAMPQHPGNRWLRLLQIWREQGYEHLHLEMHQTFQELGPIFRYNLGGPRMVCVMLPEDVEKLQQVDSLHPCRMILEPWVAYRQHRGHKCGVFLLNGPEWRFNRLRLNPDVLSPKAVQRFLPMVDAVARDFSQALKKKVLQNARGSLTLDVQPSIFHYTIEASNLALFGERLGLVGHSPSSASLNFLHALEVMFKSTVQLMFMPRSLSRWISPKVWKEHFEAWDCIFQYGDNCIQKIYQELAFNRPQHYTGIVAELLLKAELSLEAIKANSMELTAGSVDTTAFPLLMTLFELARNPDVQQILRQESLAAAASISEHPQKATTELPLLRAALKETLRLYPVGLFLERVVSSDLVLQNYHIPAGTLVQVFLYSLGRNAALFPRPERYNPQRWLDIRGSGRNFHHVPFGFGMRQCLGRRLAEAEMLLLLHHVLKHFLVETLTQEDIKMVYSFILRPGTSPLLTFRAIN
The experiment is described as follows: G-402 cellular enzyme assay, human CYP11B2 (aldosterone release, HTRF). Particulars: G-402 cells expressing human CYP11B2; 1 μM Deoxycorticosterone. It counts as cell-based. The gist of the method: as §1
A general note: In TR-FRET formats the signal depends on donor and acceptor labels being close together.

Counter-ions that a name gives are not always drawn.

Usually EC50 stands for the concentration needed to bring the measured effect to its halfway point.

On to `CN1C(=O)CCc2cc(-c3cncc(CN4CCCCC4=O)c3)ccc21` [Example 19], for which the EC50 was found to be 800 nM in experiment [1] and 23 nM in experiment [2].
For `CN1C(=O)CCc2cc(-c3cncc(CNC(=O)c4ncc(C(F)(F)F)cn4)c3)ccc21` [Example 123] the same measures were 2920 nM and 62 nM.
On to `CN1C(=O)CCc2cc(-c3cncc(CNC(=O)c4coc(C(F)(F)F)c4)c3)ccc21` [Example 84], for which the EC50 was determined as 526 nM in experiment [1] and 34 nM in experiment [2].
For `Cc1noc(C)c1C(=O)NC(C)c1cncc(-c2ccc3c(c2)CCC(=O)N3C)c1` (single isomer, unassigned) [Example 135] the same measures were 163 nM and 6 nM.
The corresponding values for `O=C1CCc2cc(-c3cncc(CNC(=O)c4ncccc4Cl)c3)ccc2N1` [Example 140, 3-Chloro-pyridine-2-carboxylic acid [5-(2-oxo-1,2,3,4-tetrahydro-quinolin-6-yl)-pyridin-3-ylmethyl]-amide] are 6650 nM and 114 nM.
As to `CN1C(=O)CCc2cc(-c3cncc(C(C)(C)N)c3)ccc21` [Example 72, 6-[5-(1-Amino-1-methyl-ethyl)-pyridin-3-yl]-1-methyl-3,4-dihydro-1H-quinolin-2-one], the EC50 in experiment [1] was 101 nM; in experiment [2], 7 nM.
The corresponding values for `CN1C(=O)CCc2cc(-c3cncc(OCCNC(=O)OC(C)(C)C)c3)c(F)cc21` [Example 232, {2-[5-(7-Fluoro-1-methyl-2-oxo-1,2,3,4-tetrahydro-quinolin-6-yl)-pyridin-3-yloxy]-ethyl}-carbamic acid tert-butyl ester] are 16 nM and 1 nM.
For `COC[C@@H]1CCCN1Cc1cncc(-c2ccc3c(c2)CCC(=O)N3C)c1` [Example 21] the same measures were 260 nM and 21 nM.
For `Cc1c(-c2ccc3c(c2)CCC(=O)N3C)cncc1C(C)N[S@+]([O-])C(C)(C)C` (single isomer, unassigned) [Example 239, (R)-2-Methyl-propane-2-sulfinic acid {(R or S)-1-[4-methyl-5-(1-methyl-2-oxo-1,2,3,4-tetrahydro-quinolin-6-yl)-pyridin-3-yl]-ethyl}-amide] the same measures were 401 nM and 21 nM.
Consider `CN1C(=O)CCc2cc(-c3cncc(OCCNC(=O)c4ncccc4Cl)c3)ccc21` [Example 233, 3-Chloro-pyridine-2-carboxylic acid {2-[5-(1-methyl-2-oxo-1,2,3,4-tetrahydro-quinolin-6-yl)-pyridin-3-yloxy]-ethyl}-amide], for which the figures for the EC50 in experiment [1] and in experiment [2] were 219 nM and 13 nM, respectively.
For `Cc1cccnc1C(=O)NCc1cncc(-c2ccc3c(c2)CCC(=O)N3C)c1` [Example 115, 3-Methyl-pyridine-2-carboxylic acid [5-(1-methyl-2-oxo-1,2,3,4-tetrahydro-quinolin-6-yl)-pyridin-3-ylmethyl]-amide] the same measures were 14 nM and 1 nM.
The corresponding values for `CN1C(=O)CCc2cc(-c3cncc(OCCN)c3)ccc21` [Example 42, 6-[5-(2-amino-ethoxy)-pyridin-3-yl]-1-methyl-3,4-dihydro-1H-quinolin-2-one hydrochloride] are 160 nM and 28 nM.
In the case of `CN1C(=O)CCc2cc(-c3cncc(NCc4ccccc4)c3)ccc21` [Example 12], the EC50 is 50 nM in experiment [1] and 2 nM in experiment [2].
Take `CN1C(=O)CCc2cc(-c3cncc(NCCO)n3)ccc21` [Example 24]: the EC50 came to 220 nM in experiment [1] and 7 nM in experiment [2].
In the case of `CCC(=O)N1CC[C@@H](Oc2cncc(-c3cc4c(cc3F)N(C)C(=O)CC4)c2)C1` [Example 133], the EC50 in experiment [1] was found to be 837 nM; in experiment [2], 10 nM.
On to `CN1C(=O)CCc2cc(-c3cncc(CN4CCCS4(=O)=O)c3)ccc21` [Example 179, 6-[5-(1,1-Dioxo-1λ^6-isothiazolidin-2-ylmethyl)-pyridin-3-yl]-1-methyl-3,4-dihydro-1H-quinolin-2-one], for which the results for the EC50 in experiment [1] and in experiment [2] were 169 nM and 12 nM, respectively.
Take `CCS(=O)(=O)N1CC[C@H]1COc1cncc(-c2ccc3c(c2)CCC(=O)N3C)c1` [Example 165, 6-[5-((S)-1-Ethanesulfonyl-azetidin-2-ylmethoxy)-pyridin-3-yl]-1-methyl-3,4-dihydro-1H-quinolin-2-one]: the EC50 is 494 nM in experiment [1] and 13 nM in experiment [2].
The corresponding values for `CCNC[C@@H]1CCCN1c1cncc(-c2ccc3c(c2)CCC(=O)N3C)c1` [Example 9, 6-[5-((S)-2-Ethylaminomethyl-pyrrolidin-1-yl)-pyridin-3-yl]-1-methyl-3,4-dihydro-1H-quinolin-2-one] are greater than 10000 nM and 829 nM.
As to `CN1C(=O)CCc2cc(-c3cncc(C4(N)COC4)c3)ccc21` [Example 69, 6-[5-(3-Amino-oxetan-3-yl)-pyridin-3-yl]-1-methyl-3,4-dihydro-1H-quinolin-2-one hydrochloride], the values for the EC50 in experiment [1] and in experiment [2] were 3490 nM and 411 nM, respectively.
The corresponding values for `CCC(=O)N1CCC[C@H](Oc2cncc(-c3ccc4c(c3)CCC(=O)N4C)c2)C1` [Example 81] are 4640 nM and 172 nM.
For `CN1C(=O)CCc2cc(-c3cncc(NC(=O)CO)c3)ccc21` [Example 3, 2-Hydroxy-N-[5-(1-methyl-2-oxo-1,2,3,4-tetrahydro-quinolin-6-yl)-pyridin-3-yl]-acetamide] the same measures were greater than 3000 nM and 715 nM.
Take `CN1C(=O)CCc2cc(-c3cncc(CNC(=O)c4ncccc4F)c3)ccc21` [Example 119]: the results for the EC50 in experiment [1] and in experiment [2] were 75 nM and 6 nM, respectively.
As for `CCC(=O)N1CC[C@H]1COc1cncc(-c2ccc3c(c2)CCC(=O)N3C)c1` [Example 94], the EC50 came out at 1340 nM in experiment [1] and 23 nM in experiment [2].
The corresponding values for `Cc1noc(C)c1C(=O)NCc1cncc(-c2cc3c(cc2F)N(C)C(=O)CC3)c1C` [Example 246, 3,5-Dimethyl-isoxazole-4-carboxylic acid [5-(7-fluoro-1-methyl-2-oxo-1,2,3,4-tetrahydro-quinolin-6-yl)-4-methyl-pyridin-3-ylmethyl]-amide] are 4720 nM and 13 nM.
Consider `CCS(=O)(=O)N(Cc1cncc(-c2ccc3c(c2)CCC(=O)N3C)c1)C(C)C` [Example 184, Ethanesulfonic acid isopropyl-[5-(1-methyl-2-oxo-1,2,3,4-tetrahydro-quinolin-6-yl)-pyridin-3-ylmethyl]-amide], for which the results for the EC50 in experiment [1] and in experiment [2] were 9740 nM and 227 nM, respectively.
The corresponding values for `CCS(=O)(=O)N[C@H]1CC[C@H](Oc2cncc(-c3ccc4c(c3)CCC(=O)N4C)c2)CC1` [Example 172, Ethanesulfonic acid {(trans)-4-[5-(1-methyl-2-oxo-1,2,3,4-tetrahydro-quinolin-6-yl)-pyridin-3-yloxy]-cyclohexyl}-amide] are 69 nM and 1 nM.
Turning to `Cc1nc(C(=O)NCc2cncc(-c3ccc4c(c3)CCC(=O)N4C)c2)c(C)o1` [Example 111], the EC50 in experiment [1] amounted to 81 nM; in experiment [2], 4 nM.
For `Cc1cccnc1C(=O)N(C)Cc1cncc(-c2ccc3c(c2)CCC(=O)N3C)c1` [Example 199, 3-Methyl-pyridine-2-carboxylic acid methyl-[5-(1-methyl-2-oxo-1,2,3,4-tetrahydro-quinolin-6-yl)-pyridin-3-ylmethyl]-amide] the same measures were 28 nM and 3 nM.
With `CCS(=O)(=O)NC1(c2cncc(-c3cc4c(cc3F)N(C)C(=O)CC4)c2)CC1` [Example 171, Ethanesulfonic acid {1-[5-(7-fluoro-1-methyl-2-oxo-1,2,3,4-tetrahydro-quinolin-6-yl)-pyridin-3-yl]-cyclopropyl}-amide], the EC50 came out at 420 nM in experiment [1] and 9 nM in experiment [2].
For `CCC(=O)N[C@H]1CC[C@H](Oc2cncc(-c3ccc4c(c3)CCC(=O)N4C)c2)CC1` [Example 144], the EC50 was 460 nM in experiment [1] and 4 nM in experiment [2].
For `CN1C(=O)CCc2cc(-c3cncc(CNC(=O)c4ncccc4Cl)c3Cl)ccc21` [Example 220, 3-Chloro-pyridine-2-carboxylic acid [4-chloro-5-(1-methyl-2-oxo-1,2,3,4-tetrahydro-quinolin-6-yl)-pyridin-3-ylmethyl]-amide], the EC50 in experiment [1] was 40 nM; in experiment [2], 2 nM.

(Values after patent US9260408B2, “Dihydroquinoline-2-one derivatives” (Hoffmann-La Roche Inc., priority 2011, dated 2016).)
